# Test results from publication PMC7352759, “S(+)-(2E)-N-(2-Hydroxypropyl)-3-Phenylprop-2-Enamide (KM-568): A Novel Cinnamamide Derivative with Anticonvulsant Activity in Animal Models of Seizures and Epilepsy” (International Journal of Molecular Sciences, 2020).
# Key:
# corneal kindled mice = assay: Corneal kindled seizure model in mice; format: in vivo; conditions: for Average Seizure Score / Results (protected/tested animals): corneal kindled mice, i.p.
# Protocol: Mice were stimulated via corneal electrodes (3 mA, 60 Hz, 3 sec) for an average of 12 days, 4 h apart. Prior to each stimulation, a drop of 0.5% tetracaine hydrochloride in saline was applied to the cornea. After development of five consecutive seizure stages at level 5 according to the Racine scale, animals were considered kindled. The groups of 8 mice received an intraperitoneal injection of appropriate doses of KM-568. […] Mice were scored as protected if the seizure score was less than or equal to three and not protected if the seizure score was more than three, based on the Racine scoring system.
# rats = assay: Maximal electroshock test (MES), rats; format: in vivo; conditions: for ED50: Rattus norvegicus, 95% confidence interval in parentheses
# Protocol: In vivo activity testing was performed at the Epilepsy Branch, National Institute of Neurological Disorders and Stroke, National Institutes of Health (NIH, Bethesda, USA) within the Anticonvulsant Screening Program (ASP) (currently known as the Epilepsy Therapy Screening Program (ETSP)). Pharmacological evaluation was planned and performed in accordance with the Institute of Laboratory Resources polices on the humane care of laboratory animals and approved by the University of Utah’s Institutional Animal Care and Use Committee (IACUC). All testing protocols were previously published as well as they are available on the NIH website. In the tests, albino mice Carworth Farms No.1 (CF-1) (Charles River), C57/Bl6 mice (Charles River), Frings mice (University of Utah) or male rats Sprague–Dawley (Charles River) were used. All animals were housed, fed, and handled in a manner consistent with the recommendations in the National Council Publication, ‘Guide for the Care and Use of Laboratory animals’ [51]. The tested compound was suspended in 0.5% methylcellulose.
# After intraperitoneal or oral administration of compound KM-568 at certain dose, an alternating current at 60 Hz and 50 mA (mice) or 150 mA (rats) was delivered for 0.2 sec via corneal electrodes to induce seizures. Prior to each stimulation, a drop of 0.5% tetracaine hydrochloride in saline was applied to cornea. Protection was defined as the abolition of the hindlimb tonic extension of the seizures.
# [1] = test system: rat cerebral cortex NMDA receptor; assay: NMDA receptor radioligand binding ([3H]CGP39653); conditions: 10 µM; antagonist radioligand
# Protocol: (§1) In order to identify molecular mechanism of action, KM-568 was tested at 10 µM in three radioligand binding assays: rat cerebral cortex GABA receptor non-selective agonist radioligand, AMPA (α-amino-3-hydroxy-5-methyl-4-isoxazolepropionic acid) receptor agonist radioligand, and NMDA (N-methyl-D-aspartate) receptor antagonist radioligand as well as one functional assay involving a human recombinant TRPV1 receptor expressed in CHO cells (agonist and antagonist effects).
# (§2) Tests were performed by Eurofins Cerep (Eurofins CEREP SA, Celle-Lévescault, France) as a commercial service. In radioligand assays, rat cerebral cortex GABA receptor as well as rat cerebral cortex AMPA (α-amino-3-hydroxy-5-methyl-4-isoxazolepropionic acid) and NMDA (N-methyl-D-aspartate) receptors with 10 nM [^3H]GABA, 8 nM [^3H]AMPA, and 5 nM [^3H]CGP39653, respectively, were used. The results were detected by means of scintillation counting. In functional assays, a human recombinant TRPV1 receptor expressed in Chinese hamster ovary (CHO) cells with 1 µM capsaicin or 30 nM capsazepine were used. Fluorimetry was used as a detection method.
# [2] = Ames microplate format (MPF) assay, TA1535; conditions: Salmonella typhimurium, Salmonella typhimurium TA1535
# From the text: (§3) The Ames microplate format (MPF) mutagenicity assay (Xenometrix, Allschwil, Switzerland) was used to test KM-568 mutagenicity. Growth, exposure, and indicator media, positive control chemicals, and four Salmonella typhimurium strains TA98, TA100, TA1535 and TA1537 were included in the kit. TA100 and TA1535 strains detect base substitution mutations, whereas TA98 and TA1537 indicate frameshift mutations. The strains of bacteria included in a kit are in compliance with the Organization for Economic Cooperation and Development (OECD) 471 Guideline for Testing of Chemicals.
# (§4) The assay is a liquid microplate modification of the traditional Salmonella test. During the procedure, bacteria are exposed to different concentrations of a test compound for 90 min in a medium containing sufficient histidine to support cell divisions. Then, the cultures are diluted in a pH indicator medium lacking histidine and aliquoted into 48 wells of a 384-well plate. Within 2 days, bacteria that have undergone reversion to amino acid prototrophy will form colonies. Products of bacteria metabolism reduce pH of the medium, changing the color of wells from purple to yellow.
# The test procedure provided by Xenometrix and described in detail elsewhere was followed. Bacterial strains were grown overnight (14–16 h) in exposure medium in a shaker incubator and then exposed to KM-568 in 24-well plates for 90 min at 37 °C with agitation. Final KM-568 concentrations in the assay were 0.1, 0.2, and 0.5 mM. After preincubation, the cultures were diluted in the indicator medium and the contents of each 24-well culture were transferred to 48 wells on a 384-well plate and incubated further for 48 h at 37 °C without agitation. After the exposure, the number of wells containing bacteria was scored for yellow wells. […] Pure DMSO was used as a negative control. All doses were performed in triplicate.
# The fold increase of revertants relative to the solvent control was determined by dividing the mean number of positive wells at each dose by the solvent control at baseline. The solvent control at baseline was calculated as the mean number of positive wells in the solvent control plus one standard deviation (SD). When an increase of more than twofold relative to the baseline at more than one dose with a dose–response was observed, the sample was classified as positive, whereas when no response > 2 times the baseline and no dose–response was stated, the sample was classified as negative.
# [3] = Ames microplate format (MPF) assay, TA100; conditions: Salmonella typhimurium
# From the text: as §3, §4
# The test procedure provided by Xenometrix and described in detail elsewhere was followed. Bacterial strains were grown overnight (14–16 h) in exposure medium in a shaker incubator and then exposed to KM-568 in 24-well plates for 90 min at 37 °C with agitation. Final KM-568 concentrations in the assay were 0.1, 0.2, and 0.5 mM. After preincubation, the cultures were diluted in the indicator medium and the contents of each 24-well culture were transferred to 48 wells on a 384-well plate and incubated further for 48 h at 37 °C without agitation. After the exposure, the number of wells containing bacteria was scored for yellow wells. […]
# The fold increase of revertants relative to the solvent control was determined by dividing the mean number of positive wells at each dose by the solvent control at baseline. The solvent control at baseline was calculated as the mean number of positive wells in the solvent control plus one standard deviation (SD). […]
# [4] = test system: rat cerebral cortex GABA receptor; assay: GABA receptor radioligand binding ([3H]GABA); conditions: 10 µM; non-selective agonist radioligand
# Protocol: as §1, §2
smiles,measurement,setting,value
"C[C@H](O)CNC(=O)/C=C/c1ccccc1 [KM-568, S(+)-(2E)-N-(2-hydroxypropyl)-3-phenylprop-2-enamide]",ED50,"corneal kindled mice; Mus musculus, ip, mice, 0.5 h (table title)",79.2 mg/kg
same,Average Seizure Score,corneal kindled mice; 57 mg/kg,4.0
same,Results (protected/tested animals),corneal kindled mice; 57 mg/kg,1/8
same,Average Seizure Score,corneal kindled mice; 84 mg/kg,3.625
same,Results (protected/tested animals),corneal kindled mice; 84 mg/kg,5/8
same,Average Seizure Score,corneal kindled mice; 115 mg/kg,0.625
same,Results (protected/tested animals),corneal kindled mice; 115 mg/kg,7/8
same,ED50,"rats; ip, 0.25 h",27.6 mg/kg
same,ED50,"rats; po, 1.0 h",30.8 mg/kg
same,MES Results (protected/tested animals),"rats; i.p., 15 mg/kg, 0.25 h",1/8
same,MES Results (protected/tested animals),"rats; i.p., 22 mg/kg, 0.25 h",3/8
same,MES Results (protected/tested animals),"rats; i.p., 30 mg/kg, 0.25 h",5/8
same,MES Results (protected/tested animals),"rats; i.p., 60 mg/kg, 0.25 h",7/8
same,MES Results (protected/tested animals),"rats; p.o., 20.0 mg/kg, 1.0 h",1/8
same,MES Results (protected/tested animals),"rats; p.o., 30.0 mg/kg, 1.0 h",3/8
same,MES Results (protected/tested animals),"rats; p.o., 35.0 mg/kg, 1.0 h",5/8
same,MES Results (protected/tested animals),"rats; p.o., 40.0 mg/kg, 1.0 h",7/8
same,Effect in NMDA receptor radioligand binding assay,[1],No significant effects
same,"fold induction at 90 min, 0.1 mM",[2],0.7
same,"fold induction at 90 min, 0.2 mM",[2],1.3
same,"fold induction at 90 min, 0.5 mM",[2],1.1
same,"fold induction at 90 min, 0.1 mM",[3],0.8
same,"fold induction at 90 min, 0.2 mM",[3],0.7
same,"fold induction at 90 min, 0.5 mM",[3],1
same,Effect in GABA receptor radioligand binding assay,[4],No significant effects
